The first test deals with Pseudomonas aeruginosa LpxC enzyme (Pseudomonas aeruginosa (strain ATCC 15692 / DSM 22644 / CIP 104116 / JCM 14847 / LMG 12228 / 1C / PRS 101 / PAO1), UniProt P47205). Briefly: biochemical. Format: biochemical. To be noted: class symbols A/B/C by IC50; Table 3; read-out: Enzyme inhibitory activity (inhibitory activity on Pseudomonas aeruginosa LpxC enzyme).
Consider `CCCC(C)(C)CNCc1ccc(C#Cc2ccc(C(=O)N(C)C(C(=O)NC)C(=O)NO)cc2)cc1` (stereo not shown) [Compound 510, 2-[({4-[(4-{[(2,2-dimethylpentyl)amino]methyl}phenyl)ethynyl]phenyl}carbonyl)(methyl)amino]-N-hydroxy-N′-methylpropanediamide], for which the IC50 is under 10 nM.
Same read-out and setting: with `CCOCc1cc(C#Cc2ccc(C(=O)N(C)[C@@](C)(C(=O)NC)C(=O)NO)cc2)co1` [Compound 612, (2S)-2-[(4-{[5-(ethoxymethyl)furan-3-yl]ethynyl}benzoyl)(methyl)amino]-N-hydroxy-N′,2-dimethylpropanediamide] the figure was under 10 nM; with `CNC(=O)C(C(=O)NO)N(C)C(=O)c1ccc(-c2ccc(CCCN3CCCOCC3)cc2)cc1` (stereo not shown) [Compound 502, N-hydroxy-N′-methyl-2-[methyl({4′-[3-(1,4-oxazepan-4-yl)propyl]biphenyl-4-yl}carbonyl)amino]propanediamide], 10 to 100 nM.

The test is the same for the next values; noted with them: inhibitory activity on Pseudomonas aeruginosa LpxC enzyme, class symbols A/B/C; read-out: Enzyme inhibitory activity.
As for `CNC(=O)C(C(=O)NO)N(C)C(=O)c1ccc(CCc2ccc(CCN3CCCOCC3)cc2)cc1` (stereo not shown) [Compound 210, N-hydroxy-N′-methyl-2-{methyl[4-(2-{4-[2-(1,4-oxazepan-4-yl)ethyl]phenyl}ethyl)benzoyl]amino}propanediamide], the IC50 fell in the range of 10 to 100 nM.
Same read-out and setting: with `CNC(=O)C(C(=O)NO)N(C)C(=O)c1ccc(-c2ccc(OC)c(F)c2)cc1` (stereo not shown) [Compound 216, 2-{[(3′-fluoro-4′-methoxybiphenyl-4-yl)carbonyl](methyl)amino}-N-hydroxy-N′-methylpropanediamide] the figure was under 10 nM; with `CNC(=O)C(C(=O)NO)N(C)C(=O)c1ccc(C#Cc2ccc(CN3CC(C)(O)C3)cc2)cc1` (stereo not shown) [Compound 321, N-hydroxy-2-[{[4-({4-[(3-hydroxy-3-methylazetidin-1-yl)methyl]phenyl}ethynyl)phenyl]carbonyl}(methyl)amino]-N′-methylpropanediamide], under 10 nM; with `O=C(NC(C(=O)NO)C(=O)Nc1cccnc1)c1ccc(-c2ccc(OCCO)cc2)cc1` (stereo not shown) [Compound 116, N-hydroxy-2-({[4′-(2-hydroxyethoxy)biphenyl-4-yl]carbonyl}amino)-N′-(pyridin-3-yl)propanediamide], 10 to 100 nM.
Same read-out and setting: the figure for `CNC(=O)C(C(=O)NO)N(C)C(=O)c1ccc(-c2ccc(/C=N/N(C)C)cc2)cc1` (stereo not shown) [Compound 275, 2-[({4′-[(E)-(dimethylhydrazinylidene)methyl]biphenyl-4-yl}carbonyl)(methyl)amino]-N-hydroxy-N′-methylpropanediamide] is under 10 nM.
Same read-out and setting: with `CNC(=O)C(C(=O)NO)N(C)C(=O)c1ccc(OCC#Cc2ccccc2)cc1` (stereo not shown) [Compound 453, N-hydroxy-N′-methyl-2-[methyl({4-[(3-phenylprop-2-yn-1-yl)oxy]phenyl}carbonyl)amino]propanediamide] the figure was 10 to 100 nM; with `CNC(=O)C(C(=O)NO)N(C)C(=O)c1ccc(-c2nc3ccccc3o2)cc1` (stereo not shown) [Compound 347, 2-[{[4-(1,3-benzoxazol-2-yl)phenyl]carbonyl}(methyl)amino]-N-hydroxy-N′-methylpropanediamide], over 100 nM; with `CNC(=O)C(C(=O)NO)N(C)C(=O)c1ccc(C#Cc2cccc(CNC3CC3)c2)cc1` (stereo not shown) [Compound 379, 2-[{[4-({3-[(cyclopropylamino)methyl]phenyl}ethynyl)phenyl]carbonyl}(methyl)amino]-N-hydroxy-N′-methylpropanediamide], 10 to 100 nM.
Regarding `CNC(=O)C(C(=O)NO)N(C)C(=O)c1ccc(C#Cc2ccc(CNCC(C)(C)C)cc2)cc1` (stereo not shown) [Compound 329, 2-[({4-[(4-{[(2,2-dimethylpropyl)amino]methyl}phenyl)ethynyl]phenyl}carbonyl)(methyl)amino]-N-hydroxy-N′-methylpropanediamide], the IC50 was under 10 nM.
Same read-out and setting: with `CNC(=O)C(C(=O)NO)N(C)C(=O)c1ccc(-c2c(F)cccc2F)cc1` (stereo not shown) [Compound 233, 2-{[(2′,6′-difluorobiphenyl-4-yl)carbonyl](methyl)amino}-N-hydroxy-N′-methylpropanediamide] the figure was 10 to 100 nM; with `CNC(=O)C(C(=O)NO)N(C)C(=O)c1ccc(Oc2ccccc2)cc1` (stereo not shown) [Compound 443, N-hydroxy-N′-methyl-2-{methyl[(4-phenoxyphenyl)carbonyl]amino}propanediamide], over 100 nM; with `CNC(=O)C(C(=O)NO)N(C)C(=O)c1ccc(-c2ccc(Cl)c(Cl)c2)cc1` (stereo not shown) [Compound 224, 2-{[(3′,4′-dichlorobiphenyl-4-yl)carbonyl](methyl)amino}-N-hydroxy-N′-methylpropanediamide], under 10 nM.
Same read-out and setting: with `CNC(=O)C(C(=O)NO)N(C)C(=O)c1ccc(C#Cc2ccc(OCCN3CCCOCC3)cc2)cc1` (stereo not shown) [Compound 381, N-hydroxy-N′-methyl-2-(methyl {[4-({4-[2-(1,4-oxazepan-4-yl)ethoxy]phenyl}ethynyl)phenyl]carbonyl}amino)propanediamide] the figure was under 10 nM; with `CNC(=O)C(C(=O)NO)N(C)C(=O)c1ccc(OC2C=CCCC2)cc1` (stereo not shown) [Compound 444, 2-[{[4-(cyclohex-2-en-1-yloxy)phenyl]carbonyl}(methyl)amino]-N-hydroxy-N′-methylpropanediamide], 10 to 100 nM; with `CN(C(=O)c1ccc(-c2ccccc2)cc1)C(C(=O)NO)C(=O)NCc1ccccn1` (stereo not shown) [Compound 161, 2-[(biphenyl-4-ylcarbonyl)(methyl)amino]-N-hydroxy-N′-(pyridin-2-ylmethyl)propanediamide], 10 to 100 nM.
For the compound `CNC(=O)C(C(=O)NO)N(C)C(=O)c1ccc(C#C/C=C/c2ccc(OC)nc2)cc1` (stereo not shown) [Compound 478, N-hydroxy-2-[({4-[(3E)-4-(6-methoxypyridin-3-yl)but-3-en-1-yn-1-yl]phenyl}carbonyl)(methyl)amino]-N′-methylpropanediamide], the IC50 was under 10 nM.
On to `CNC(=O)C(C)(C(=O)NO)N(C)C(=O)c1ccc(-c2ccc(OC)cc2)cc1` (stereo not shown) [Compound 348, N-hydroxy-2-{[(4′-methoxybiphenyl-4-yl)carbonyl](methyl)amino}-N′,2-dimethylpropanediamide], for which the IC50 is under 10 nM.
Same read-out and setting: with `CNC(=O)C(C(=O)NO)N(C)C(=O)c1ccc(-c2ccc3nonc3c2)cc1` (stereo not shown) [Compound 189, 2-{[4-(2,1,3-benzoxadiazol-5-yl)benzoyl](methyl)amino}-N-hydroxy-N′-methylpropanediamide] the figure was 10 to 100 nM; with `O=C(NC(C(=O)NO)C(=O)NCC(F)F)c1ccc(-c2ccc(OCCO)cc2)cc1` (stereo not shown) [Compound 137, N-(2,2-difluoroethyl)-N′-hydroxy-2-({[4′-(2-hydroxyethoxy)biphenyl-4-yl]carbonyl}amino)propanediamide], 10 to 100 nM.
Same read-out and setting: with `CNC(=O)C(C(=O)NO)N(C)C(=O)c1ccc(-c2ccoc2)cc1` (stereo not shown) [Compound 105, 2-{[4-(furan-3-yl)benzoyl](methyl)amino}-N-hydroxy-N′-methylpropanediamide] the figure was over 100 nM; with `CN(C)C(=O)C(C(=O)NO)N(C)C(=O)c1ccc(-c2ccccc2)cc1` (stereo not shown) [Compound 80, 2-[(biphenyl-4-ylcarbonyl)(methyl)amino]-N′-hydroxy-N,N-dimethylpropanediamide], over 100 nM; with `CNC(=O)C(C(=O)NO)N(C)C(=O)c1ccc(-c2ccncc2F)cc1` (stereo not shown) [Compound 448, 2-[{[4-(3-fluoropyridin-4-yl)phenyl]carbonyl}(methyl)amino]-N-hydroxy-N′-methylpropanediamide], 10 to 100 nM.
Same read-out and setting: the figure for `CCCCOc1ccc(C(=O)N(C)C(C(=O)NC)C(=O)NO)cc1` (stereo not shown) [Compound 35, 2-[(4-butoxybenzoyl)(methyl)amino]-N-hydroxy-N′-methylpropanediamide] is 10 to 100 nM; for `CC(C)(C)CNC(=O)C(NC(=O)c1ccc(-c2ccc(OCCO)cc2)cc1)C(=O)NO` (stereo not shown) [Compound 136, N-(2,2-dimethylpropyl)-N′-hydroxy-2-({[4′-(2-hydroxyethoxy)biphenyl-4-yl]carbonyl}amino)propanediamide] it is 10 to 100 nM.
`CNC(=O)C(C(=O)NO)N(C)C(=O)c1ccc(C#Cc2ccc(C3(N)CC3)cc2)cc1` (stereo not shown) [Compound 394, 2-{[(4-{[4-(1-aminocyclopropyl)phenyl]ethynyl}phenyl)carbonyl](methyl)amino}-N-hydroxy-N′-methylpropanediamide]: the IC50 lay within 10 to 100 nM.
For the compound `CNC(=O)C(C(=O)NO)N(C)C(=O)c1ccc(-c2ccc(N)cc2)cc1` (stereo not shown) [Compound 284, 2-{[(4′-aminobiphenyl-4-yl)carbonyl](methyl)amino}-N-hydroxy-N′-methylpropanediamide], the IC50 is 10 to 100 nM.
Same read-out and setting: the figure for `CNC(=O)C(C(=O)NO)N(C)C(=O)c1ccc(-c2ccc3c(c2)cc(COCOC)n3C)cc1` (stereo not shown) [Compound 33, N-hydroxy-2-[(4-{2-[(methoxymethoxy)methyl]-1-methyl-1H-indol-5-yl}benzoyl)(methyl)amino]-N′-methylpropanediamide] is under 10 nM; for `CNC(=O)C(C(=O)NO)N(C)C(=O)c1ccc(-c2ccc(NCc3cccnc3)cc2)cc1` (stereo not shown) [Compound 65, N-hydroxy-N′-methyl-2-[methyl({4′-[(pyridin-3-ylmethyl)amino]biphenyl-4-yl}carbonyl)amino]propanediamide] it is under 10 nM; for `CNC(=O)C(C(=O)NO)N(C)C(=O)c1ccc(OC(F)(F)C(F)F)cc1` (stereo not shown) [Compound 47, N-hydroxy-N′-methyl-2-{methyl[4-(1,1,2,2-tetrafluoroethoxy)benzoyl]amino}propanediamide] it is over 100 nM.
Same read-out and setting: with `CNC(=O)C(C(=O)NO)N(C)C(=O)c1ccc(-c2ccc(OC(F)(F)C(F)F)cc2)cc1` (stereo not shown) [Compound 83, N-hydroxy-N′-methyl-2-(methyl {[4′-(1,1,2,2-tetrafluoroethoxy)biphenyl-4-yl]carbonyl}amino)propanediamide] the figure was under 10 nM.
The same measure, in the same setting: the figure for `CNC(=O)C(C(=O)NO)N(C)C(=O)c1ccc(-c2cccs2)cc1` (stereo not shown) [Compound 308, N-hydroxy-N′-methyl-2-(methyl {[4-(thiophen-2-yl)phenyl]carbonyl}amino)propanediamide] is 10 to 100 nM.

The values above are taken from patent US9073821B2, “Hydroxamic acid derivative” (priority 2010, dated 2015).
